Data taken from ChEMBL document CHEMBL1201862, “PubChem BioAssay data set” (2004).
Activity calls are given as the source filed them.

Tests used:
cells = format: functional
Genome polyprotein = Genome polyprotein (dengue virus type 2, UniProt P29990); test: flavivirus cap methylation enzyme inhibition – biochemical, confirmation dose response, primary screen (AID 588689); format: functional
Large T antigen = Large T antigen (Simian virus 40, UniProt P03070); format: functional, Betapolyomavirus macacae;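 note: Confirmatory-stage PubChem screen for compounds that inhibit SV40 T antigen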
[1] = molecular target: T1, Carboxy-terminal domain RNA polymerase II polypeptide A small phosphatase 1 (Homo sapiens, UniProt Q9GZU7); test: CTDSP1 inhibitors, concentration-response, biochemical, absorbance readout, ultra-high-throughput screen actives (AID 540297); format: functional
T1 sequence (Q9GZU7 whole entry): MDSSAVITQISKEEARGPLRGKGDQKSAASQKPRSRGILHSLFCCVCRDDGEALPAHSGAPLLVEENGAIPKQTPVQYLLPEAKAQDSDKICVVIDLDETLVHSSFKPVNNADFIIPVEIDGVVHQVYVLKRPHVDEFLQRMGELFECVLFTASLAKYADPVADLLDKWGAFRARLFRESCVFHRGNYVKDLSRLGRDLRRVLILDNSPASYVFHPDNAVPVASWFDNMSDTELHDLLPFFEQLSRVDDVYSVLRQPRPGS

Escherichia coli = test: microbe, parasite or virus in culture
[2] = tested on: Streptococcus sp. 'group A'; test: Streptococcus pyogenes SK(-)GAS viability under kanamycin – luminescence, BacTiterGlo, confirmation, counter-screen for streptokinase expression inhibitor project, dose response (AID 1900); format: functional, organism-based
Streptococcus = test: GAS UMAA2166 growth inhibition – luminescence, BacTiterGlo, counter-screen for streptokinase expression inhibitor project, dose response (AID 1915); format: functional, organism-based;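 note: potency for reduction of bacterial viability or growth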
[3] = intracellular Trypanosoma cruzi inhibitors in host cells – cell-based, plate reader, cherry-pick samples, set 3, dose response (AID 651818); format: functional;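 note: compounds incubated with infected cells for about four days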
[4] = blockers of CRF-binding protein–CRF-R2 complex – cell-based, uHTS hits, 384-well, dose response (AID 651639); format: functional, Homo sapiens; settings: read-out: IC50_Mean
[5] = molecular target: T2, Corticotropin-releasing factor receptor 2/Corticotropin-releasing factor-binding protein (Homo sapiens, UniProt P24387+Q13324); test: activators of CRF receptor 2 with binding protein – uHTS hits, confirmation (AID 602473); format: functional; settings: read-out: EC50_Mean
T2 sequence (Q13324 whole entry): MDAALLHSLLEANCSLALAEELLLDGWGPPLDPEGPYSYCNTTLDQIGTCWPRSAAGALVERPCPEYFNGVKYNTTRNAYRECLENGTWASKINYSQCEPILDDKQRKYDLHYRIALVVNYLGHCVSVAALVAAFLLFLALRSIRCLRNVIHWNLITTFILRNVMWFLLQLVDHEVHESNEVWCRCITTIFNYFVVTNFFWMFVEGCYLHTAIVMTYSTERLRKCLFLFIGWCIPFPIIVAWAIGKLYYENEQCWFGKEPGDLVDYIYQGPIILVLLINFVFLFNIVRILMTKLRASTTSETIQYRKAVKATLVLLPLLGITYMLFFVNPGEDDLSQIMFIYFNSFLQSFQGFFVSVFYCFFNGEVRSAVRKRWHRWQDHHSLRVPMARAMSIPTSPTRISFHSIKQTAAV
T2 sequence (P24387 whole entry): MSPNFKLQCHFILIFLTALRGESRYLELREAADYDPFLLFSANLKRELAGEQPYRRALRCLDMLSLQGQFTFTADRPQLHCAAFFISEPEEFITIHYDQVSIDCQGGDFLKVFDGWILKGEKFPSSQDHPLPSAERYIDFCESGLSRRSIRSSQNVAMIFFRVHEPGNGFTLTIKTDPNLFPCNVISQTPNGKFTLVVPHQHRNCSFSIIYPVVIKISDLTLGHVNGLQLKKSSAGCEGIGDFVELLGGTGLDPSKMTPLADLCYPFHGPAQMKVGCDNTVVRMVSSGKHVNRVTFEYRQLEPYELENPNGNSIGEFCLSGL

[6] = molecular target: T2, Corticotropin-releasing factor receptor 2/Corticotropin-releasing factor-binding protein; test: Dose Response confirmation of uHTS hits for small molecule antagonists of the CRF-binding protein and CRF-R2 receptor complex.; format: functional; settings: read-out: IC50_Mean
Prothrombin = Prothrombin (Homo sapiens, UniProt P00734); test: Thrombin 1536 HTS Dose Response Confirmation. [Related pubchem assays: 1046 (Thrombin 1536 HTS; hits were confirmed in this assay)]; format: functional
[7] = molecular target: T3, High affinity choline transporter 1 (Homo sapiens, UniProt Q9GZV3); test: human choline transporter blockers, potency – cell-based, 5-point CRC, membrane potential dye, dose response (AID 504840); format: functional
T3 sequence (Q9GZV3 whole entry): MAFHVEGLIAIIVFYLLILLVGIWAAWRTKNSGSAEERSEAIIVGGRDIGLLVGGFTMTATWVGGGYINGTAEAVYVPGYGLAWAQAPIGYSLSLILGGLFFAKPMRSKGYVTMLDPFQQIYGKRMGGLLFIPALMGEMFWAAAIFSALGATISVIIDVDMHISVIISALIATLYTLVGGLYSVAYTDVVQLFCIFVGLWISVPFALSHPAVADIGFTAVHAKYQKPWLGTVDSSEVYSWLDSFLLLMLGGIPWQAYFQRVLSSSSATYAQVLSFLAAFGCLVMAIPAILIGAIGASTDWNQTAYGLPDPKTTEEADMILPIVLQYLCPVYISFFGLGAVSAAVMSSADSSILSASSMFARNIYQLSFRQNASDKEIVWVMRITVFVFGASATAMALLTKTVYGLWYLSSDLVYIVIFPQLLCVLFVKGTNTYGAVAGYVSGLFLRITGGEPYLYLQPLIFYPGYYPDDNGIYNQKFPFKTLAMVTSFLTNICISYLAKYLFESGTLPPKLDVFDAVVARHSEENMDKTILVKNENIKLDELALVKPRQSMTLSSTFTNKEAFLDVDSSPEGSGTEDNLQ

Cytochrome P450 2C9 = Cytochrome P450 2C9 (Homo sapiens, UniProt P11712)
[8] = viability of PTEN-deleted HCT116 cells – cell-based, HCT116 PTEN knockout, dose response (AID 1047); format: functional;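 note: HCT116 colon tumor cells with PTEN knocked out; cells exposed to compound for 60 hours before readout; potency for loss of cell viability measured by luminescence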
[9] = viability of HCT116 lacking mutant beta-catenin – cell-based, human colon tumor, dose response (AID 1045); format: functional;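 note: HCT116 colon tumor cells with beta catenin knocked out; cells exposed to compound for 60 hours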

Sequence of Genome polyprotein (P29990 2492-3391 limits assumed): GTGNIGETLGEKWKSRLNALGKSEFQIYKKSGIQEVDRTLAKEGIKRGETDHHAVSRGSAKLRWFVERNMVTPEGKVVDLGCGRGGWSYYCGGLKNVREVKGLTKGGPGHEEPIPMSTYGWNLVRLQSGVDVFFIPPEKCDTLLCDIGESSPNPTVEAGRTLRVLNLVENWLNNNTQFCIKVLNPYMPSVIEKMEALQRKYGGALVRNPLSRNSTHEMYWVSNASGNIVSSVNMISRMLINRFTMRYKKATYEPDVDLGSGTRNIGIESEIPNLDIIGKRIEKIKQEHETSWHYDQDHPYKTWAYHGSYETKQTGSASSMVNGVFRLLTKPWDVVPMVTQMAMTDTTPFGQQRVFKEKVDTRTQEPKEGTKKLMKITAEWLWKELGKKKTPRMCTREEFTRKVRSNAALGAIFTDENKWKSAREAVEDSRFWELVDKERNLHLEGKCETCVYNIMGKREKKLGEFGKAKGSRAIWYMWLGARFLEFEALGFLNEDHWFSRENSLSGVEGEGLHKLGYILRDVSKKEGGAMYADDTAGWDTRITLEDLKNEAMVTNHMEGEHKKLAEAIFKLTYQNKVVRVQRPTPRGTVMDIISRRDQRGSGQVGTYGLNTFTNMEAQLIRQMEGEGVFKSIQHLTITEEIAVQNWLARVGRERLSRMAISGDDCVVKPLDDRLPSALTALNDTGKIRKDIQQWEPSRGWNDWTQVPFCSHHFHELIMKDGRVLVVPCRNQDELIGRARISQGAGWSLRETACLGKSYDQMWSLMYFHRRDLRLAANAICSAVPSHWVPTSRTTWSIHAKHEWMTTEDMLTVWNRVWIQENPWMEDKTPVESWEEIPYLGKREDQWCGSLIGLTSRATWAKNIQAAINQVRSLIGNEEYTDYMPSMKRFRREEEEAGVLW
Sequence of Large T antigen (P03070 whole entry, the tested form may be a part): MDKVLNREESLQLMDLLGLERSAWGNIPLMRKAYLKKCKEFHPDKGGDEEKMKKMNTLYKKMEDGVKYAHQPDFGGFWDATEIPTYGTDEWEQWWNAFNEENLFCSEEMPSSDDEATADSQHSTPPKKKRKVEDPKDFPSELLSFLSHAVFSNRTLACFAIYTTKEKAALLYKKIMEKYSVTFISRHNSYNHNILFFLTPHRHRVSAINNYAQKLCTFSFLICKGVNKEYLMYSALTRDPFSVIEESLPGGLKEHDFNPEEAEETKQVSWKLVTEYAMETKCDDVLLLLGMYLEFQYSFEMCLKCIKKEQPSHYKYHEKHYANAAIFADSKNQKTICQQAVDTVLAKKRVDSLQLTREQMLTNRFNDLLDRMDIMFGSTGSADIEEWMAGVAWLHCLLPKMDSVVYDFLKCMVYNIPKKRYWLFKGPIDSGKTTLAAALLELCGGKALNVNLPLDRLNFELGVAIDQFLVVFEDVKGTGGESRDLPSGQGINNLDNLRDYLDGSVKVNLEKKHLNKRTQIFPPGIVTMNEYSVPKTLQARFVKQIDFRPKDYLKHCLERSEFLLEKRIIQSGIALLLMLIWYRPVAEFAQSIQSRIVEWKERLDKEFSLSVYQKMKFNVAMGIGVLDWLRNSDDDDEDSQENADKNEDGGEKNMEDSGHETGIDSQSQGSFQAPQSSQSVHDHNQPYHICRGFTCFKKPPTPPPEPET
Sequence of Cytochrome P450 2C9 (P11712 whole entry): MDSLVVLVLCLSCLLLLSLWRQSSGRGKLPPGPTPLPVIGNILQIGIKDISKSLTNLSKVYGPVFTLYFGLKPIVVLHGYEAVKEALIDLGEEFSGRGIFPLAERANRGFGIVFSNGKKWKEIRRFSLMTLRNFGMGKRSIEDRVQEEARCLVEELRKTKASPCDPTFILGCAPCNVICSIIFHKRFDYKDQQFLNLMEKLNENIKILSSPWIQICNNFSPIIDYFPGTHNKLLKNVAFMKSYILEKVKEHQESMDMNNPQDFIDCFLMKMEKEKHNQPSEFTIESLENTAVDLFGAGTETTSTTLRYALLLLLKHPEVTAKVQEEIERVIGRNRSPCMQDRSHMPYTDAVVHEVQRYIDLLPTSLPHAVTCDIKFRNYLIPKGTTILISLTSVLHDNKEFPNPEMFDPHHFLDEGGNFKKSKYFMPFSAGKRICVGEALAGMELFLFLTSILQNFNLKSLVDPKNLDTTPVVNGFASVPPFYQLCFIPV

Compound: COc1cc(/C=C2/C(=O)NN(c3cccc(C)c3)C2=O)ccc1OC(=O)c1ccco1
- IC50 (cells): 19.9 µM (active)
- IC50 (Genome polyprotein): 64 µM (active)
- IC50 (Large T antigen): 32.1 µM (active)

Compound: O=C(Nc1cccc([N+](=O)[O-])c1)Nc1cccc([N+](=O)[O-])c1
- IC50 [1]: 8.46 µM (active)

Compound: CC[C@H]1OC(=O)[C@H](C)[C@@H](O[C@H]2C[C@@](C)(OC)[C@@H](O)[C@H](C)O2)[C@H](C)[C@@H](O[C@@H]2O[C@H](C)C[C@H](N(C)C)[C@H]2O)[C@](C)(OC)C[C@@H](C)C(=O)[C@H](C)[C@@H](O)[C@]1(C)O [CLARITHROMYCIN]
- AC50 (Escherichia coli): 23.1 µM (active)
- EC50 [2]: < 60 nM (active)
- EC50 (Streptococcus): < 60 nM (active)

Compound: O=C(CSc1nnc(-c2ccncc2)n1-c1ccc(F)cc1)NC(=O)NCc1ccco1
- IC50 [1]: 8.38 µM (active)

Compound: C[C@@H]1CN([C@@H](C)CO)C(=O)Cc2cc(NC(=O)Nc3ccc(C(F)(F)F)cc3)ccc2O[C@@H]1CN(C)Cc1ccc(C(F)(F)F)cc1
- AC50 [3]: 3.26 µM (active)

Compound: C[C@@H]1CN([C@@H](C)CO)C(=O)Cc2cc(NC(=O)Nc3cccc4ccccc34)ccc2O[C@@H]1CN(C)Cc1ccc(C(F)(F)F)cc1
- AC50 [3]: 3.08 µM (active)

Compound: Nc1nnc(SCc2cc3c(cc2Cl)OCO3)s1
- IC50 [4]: > 20 µM (inactive)
- EC50 [5]: > 53 µM (inactive)
- IC50 [6]: 22.5 µM (active)

Compound: Cc1cc([N+](=O)[O-])ccc1NC1CCCC1
- IC50 [4]: 12.8 µM (active)
- EC50 [5]: > 53 µM (inactive)
- IC50 [6]: 7.24 µM (active)

Compound: C[C@@H]1CN([C@H](C)CO)C(=O)c2cccc(NC(=O)Nc3ccc4c(c3)OCO4)c2O[C@H]1CN(C)Cc1ccc(C(=O)Nc2ccccc2N)cc1
- AC50 [3]: 0.743 µM (active)

Compound: Cc1cccc(NC(=S)NC23CN4CN(CN(C4)C2)C3)c1
- IC50 (Prothrombin): > 50 µM (not active)

Compound: CSc1nc(C)c(C(=O)C[n+]2ccccc2C)cc1C#N
- IC50 [4]: > 20 µM (inactive)
- EC50 [5]: > 53 µM (inactive)
- IC50 [6]: < 0.368 µM (active)

Compound: COC(=O)c1ccc(N2NC(=O)/C(=C/c3cc(OC)c(OC)c(OC)c3)C2=O)cc1
- IC50 (Genome polyprotein): 46.6 µM (active)

Compound: COc1ccccc1CCNC(=O)CCn1nc(C)c2c(C)n(-c3ccccc3)nc2c1=O
- IC50 [4]: > 20 µM (inactive)
- EC50 [5]: > 53 µM (inactive)
- IC50 [6]: 41.1 µM (active)

Compound: O=C(O)c1ccc(Cl)c(S(=O)(=O)Nc2ccccc2C(=O)Nc2ccc(Cl)cc2)c1
- IC50 (Genome polyprotein): 34 µM (active)

Compound: CCCC(NC(=O)Cc1c(C)c2cc3c(C)c(C)oc3c(C)c2oc1=O)C(=O)N[C@@H](Cc1ccccc1)C(=O)O (stereo not given in full)
- IC50 [1]: 3.57 µM (active)

Compound: C[C@@H]1CCCCO[C@@H](CN(C)Cc2ccc(Cl)c(Cl)c2)[C@@H](C)CN([C@H](C)CO)C(=O)c2cc(NS(=O)(=O)c3ccc(F)cc3)ccc2O1
- AC50 [3]: 4.38 µM (active)

Compound: COc1cc2c(cc1NC(=O)COC(=O)[C@@H](NC(=O)c1ccccc1)C(C)C)oc1ccccc12
- AC50 (Escherichia coli): 33.8 µM (active)

Compound: CCOC(=O)Cc1csc(NC(=S)NC(=O)c2ccc([N+](=O)[O-])cc2)n1
- IC50 [4]: > 20 µM (inactive)
- EC50 [5]: 18 µM (active)
- IC50 [6]: 16.7 µM (active)

Compound: CC(C)c1ccc(NC(=O)COc2ccccn2)cc1
- IC50 (Prothrombin): > 50 µM (not active)

Compound: Cc1ccccc1-c1nc(CN2CCC(C(=O)O)CC2)c(C)o1
- AC50 (Escherichia coli): 20.8 µM (active)

Compound: CCCN(CCC)c1nc(O)nc(N(CCC)CCC)n1
- IC50 [7]: 3.63 µM (active)

Compound: COc1ccc(NC(=O)Nc2ccc3c(c2)CC(=O)N([C@@H](C)CO)C[C@@H](C)[C@@H](CN(C)Cc2ccc(C(=O)Nc4ccccc4N)cc2)O3)cc1
- AC50 [3]: 2.51 µM (active)

Compound: O=C(CCS(=O)(=O)c1ccc(Br)cc1)NC1CCCCCC1
- IC50 [1]: 7.42 µM (active)

Compound: CCn1cc(C(=O)O)c(=O)c2cc(F)c(N3CCNCC3)nc21 [ENOXACIN]
- AC50 (Escherichia coli): 1.07 µM (active)
- AC50 (Cytochrome P450 2C9): inconclusive

Compound: Cc1ncoc1C(=O)Nc1ccc(Oc2ccccc2)cc1
- IC50 [7]: 13.2 µM (active)

Compound: CCCC(C(=O)O)N1C(=O)/C(=C2\C(=O)N(C)c3ccccc32)SC1=S (stereo not given)
- IC50 (Genome polyprotein): 30.4 µM (active)

Compound: Cc1cc(Oc2nc3c(C)cccn3c(=O)c2/C=C(\C#N)S(=O)(=O)c2ccc(Cl)cc2)ccc1Cl
- AC50 (Escherichia coli): 28.9 µM (active)
- EC50 [8]: 7.18 µM (active)
- EC50 [9]: 6.7 µM (active)

Compound: CCc1cccc(CC)c1NC(=O)c1cccc(N)c1
- IC50 (Prothrombin): > 50 µM (not active)
